Here are results for two substances from paper PMC4212090, “The comprehensive analysis of DEG/ENaC subunits in Hydra reveals a large variety of peptide-gated channels, potentially involved in neuromuscular transmission” (BMC Biology, 2014).

Several values for one entry are separate records, joined by “and”; a condition that tells them apart may be missing. Equal entries are not always repeated. Entries after “also recorded” stand apart in the source; their conditions may differ. Where two headings read alike, the source gives them in different places.

For one assay, the target named is HyNaC2/4/6 (Hydra vulgaris (Hydra magnipapillata), UniProt A0A0A0MP54+A8DZR6+A8DZR8). Description: Activation of HyNaC2/4/6 expressed in Xenopus oocytes by Hydra-RFamides (TEVC). Type of assay: cell-based. Here is the method: (§1) To study the biophysical properties of the new HyNaCs, cRNA of HyNaCs was synthesized in vitro (mMessage mMachine kit, Ambion, Austin, Texas, USA) and injected into Xenopus laevis oocytes of stage V and VI. After injection, oocytes were incubated for one to two days at 19°C in oocyte Ringer’s solution 2 (OR-2), which contained (in mM): 82.5 NaCl, 2.5 KCl, 1.0 Na2HPO4, 1.0 MgCl2, 1.0 CaCl2, 5.0 HEPES, 0.5 g/l PVP, 1,000 U/l penicillin and 10 mg/l streptomycin, NaOH was used to adjust pH to 7.3. Whole cell currents were recorded from defolliculated oocytes by two-electrode voltage-clamp (TEVC) using the amplifier TurboTec 03X (npi electronic GmbH, Tamm, Germany). Standard bath solution (in mM: 140 NaCl, 10 HEPES, 1.8 CaCl2 and 1.0 MgCl2. NaOH was used to adjust pH to 7.4.) was exchanged by a pump driven system combined with the oocyte testing carousel (OTC), which was controlled by the interface OTC-20 [53]. To control the OTC-20 and to record the data to the hard drive, the software CellWorks (version 5.1.1; npi electronic GmbH, Tamm, Germany) was used. Data were sampled at 0.1 to 1 kHz and filtered at 20 Hz. HyNaCs are permeable for Ca^2+, activating an endogenous CaCC [40]. Therefore, unless otherwise indicated, oocytes were injected with 50 nl of 20 mM EGTA 30 to 180 minutes before measurements. Reversal potentials and Ca^2+ permeabilities of HyNaCs were studied as described previously.
(§2) EC50 values for Hydra-RFamides I and II as well as IC50 values for diminazene were determined by fits to the Hill equation using IGOR Pro (version 6.06, WaveMetrics, Inc.). Reversal potentials were defined as the first recorded data point, where currents reversed signs from negative to positive. For I/V relationships, voltage ramps in the absence of the agonist were used to subtract background conductances. Results are reported as mean ± standard error.

Assay [1] deals with T1, HyNaC2/3/5 (Hydra vulgaris (Hydra magnipapillata), UniProt A8DZR6+A8DZR7+D3UD58). Description: Activation of HyNaC2/3/5 expressed in Xenopus oocytes by Hydra-RFamides (TEVC). Type of assay: cell-based. Here is the method:
as §1, §2

The test system of assay [2] is functional HyNaC heterotrimer. Briefly: Screen of functional HyNaC heterotrimers in Xenopus oocytes for activation by Hydra-RFamides. Type of assay: cell-based, Hydra magnipapillata. The following applies: 5 μM peptide; Xenopus oocytes. Here is the method:
We tested the function of the new HyNaCs by co-expression of different HyNaC subunit combinations in Xenopus oocytes. We screened for functional subunit combinations by application of 5 μM Hydra-RFamide I, a potent agonist of HyNaC2/3/5 [4]. When we expressed an individual HyNaC subunit we could never elicit currents. […] When HyNaC2 was part of the injected cRNA pool, however, Hydra-RFamide I elicited currents. Simultaneous expression of HyNaC2 with a single other HyNaC resulted only in a functional channel when we co-expressed HyNaC2 and HyNaC3; it was already known that HyNaC2 and HyNaC3 form a low-affinity peptide-gated channel.
Dashed line represents the zero current level. Amino acid sequences of Hydra-RFamides I to V are shown at the bottom. HyNaC, Hydra Na^+ channel.
Since Hydra-RFamide II had been shown previously to activate HyNaC2/3/5 [4], we tested Hydra-RFamides II to V for channel activation.
as §1

For assay [3], the target named is T1, HyNaC2/3/5. Details: method as in PMID 20159980. As to conditions: for comparison, ref [4], read-out: EC50 for Hydra-RFamide I; cited from earlier work.
Assay [4] has as its system HyNaCs containing HyNaC12. Briefly: Activation of HyNaC12-containing subunit combinations in Xenopus oocytes by Hydra-RFamides. Type of assay: cell-based, Hydra magnipapillata. The following applies: HyNaC12 co-expressed with HyNaC2 and other HyNaCs or pools; 5 μM peptide. Here is the method: The contribution of the distantly related HyNaC12 to peptide-gated channels was assessed by co-expression with HyNaC2 and one or several other HyNaCs (HyNaC3 to HyNaC11). In addition, HyNaC12 was co-expressed with pools of different HyNaCs without HyNaC2. […] In fact, all HyNaCs that were activated by Hydra-RFamide I were opened by lowering the extracellular Ca^2+ concentration ([Ca^2+]e) to 10 nM (Figure 4). […] Some DEG/ENaCs are constitutively opened by an amino acid substitution at the so-called DEG-position. To further investigate whether HyNaC12 forms a functional homomeric channel, we substituted a glycine at the DEG-position by threonine (G436T), which has a large side chain. This substitution did, however, not constitutively open HyNaC12 (data not shown). This applies also for the co-expression of HyNaC12-G436T together with pools of different wild-type HyNaC subunits, leaving the function of HyNaC12 unknown. […]
(§3) To study the biophysical properties of the new HyNaCs, cRNA of HyNaCs was synthesized in vitro (mMessage mMachine kit, Ambion, Austin, Texas, USA) and injected into Xenopus laevis oocytes of stage V and VI. […] Whole cell currents were recorded from defolliculated oocytes by two-electrode voltage-clamp (TEVC) using the amplifier TurboTec 03X (npi electronic GmbH, Tamm, Germany). […]

Another assay has as its target HyNaC2/9/7 (Hydra vulgaris (Hydra magnipapillata), UniProt A0A0A0MP48+A0A0A0MP73+A8DZR6). Briefly: Activation of HyNaC2/9/7 expressed in Xenopus oocytes by Hydra-RFamides (TEVC). Type of assay: cell-based. Here is the method:
as §1, §2

The subject of the next assay is HyNaC2/9/5. Briefly: Activation of HyNaC2/9/5 in Xenopus oocytes by Hydra-RFamides. Type of assay: cell-based, Hydra magnipapillata. The following applies: channel opened by lowering extracellular Ca2+. The procedure: The contribution of the distantly related HyNaC12 to peptide-gated channels was assessed by co-expression with HyNaC2 and one or several other HyNaCs (HyNaC3 to HyNaC11). In addition, HyNaC12 was co-expressed with pools of different HyNaCs without HyNaC2. […] In fact, all HyNaCs that were activated by Hydra-RFamide I were opened by lowering the extracellular Ca^2+ concentration ([Ca^2+]e) to 10 nM (Figure 4). […] Some DEG/ENaCs are constitutively opened by an amino acid substitution at the so-called DEG-position. To further investigate whether HyNaC12 forms a functional homomeric channel, we substituted a glycine at the DEG-position by threonine (G436T), which has a large side chain. This substitution did, however, not constitutively open HyNaC12 (data not shown). This applies also for the co-expression of HyNaC12-G436T together with pools of different wild-type HyNaC subunits, leaving the function of HyNaC12 unknown.
as §3

A further assay addresses HyNaC2/11/5 (Hydra vulgaris (Hydra magnipapillata), UniProt A0A0A0MP55+A8DZR6+D3UD58). Description: Activation of HyNaC2/11/5 expressed in Xenopus oocytes by Hydra-RFamides (TEVC). Type of assay: cell-based. Here is the method: as §1, §2
The target in another assay is HyNaC2/3/7 (Hydra vulgaris (Hydra magnipapillata), UniProt A0A0A0MP73+A8DZR6+A8DZR7). Description: Activation of HyNaC2/3/7 expressed in Xenopus oocytes by Hydra-RFamides (TEVC). The format is cell-based. Here is the method:
as §1, §2

Another assay deals with HyNaC2/10/7 (Hydra vulgaris (Hydra magnipapillata), UniProt A0A0A0MP61+A0A0A0MP73+A8DZR6). Description: Activation of HyNaC2/10/7 expressed in Xenopus oocytes by Hydra-RFamides (TEVC). The following applies: EGTA-injected oocytes, saturating ligand concentration not reached. Type of assay: cell-based. Here is the method:
as §1, §2

A further assay addresses HyNaC2/3/6 (Hydra vulgaris (Hydra magnipapillata), UniProt A0A0A0MP54+A8DZR6+A8DZR7). Description: Activation of HyNaC2/3/6 expressed in Xenopus oocytes by Hydra-RFamides (TEVC). Type of assay: cell-based. Here is the method:
as §1, §2

The target of assay [5] is HyNaC2/9/7 (Hydra magnipapillata).
Assay [6] concerns the target HyNaC2/3/5 (Hydra magnipapillata).
The target in assay [7] is HyNaC2/3/6 (Hydra magnipapillata).
Assay [8] deals with HyNaC2/10/7 (Hydra magnipapillata).
Assay [9] has as its target HyNaC2/4/6 (Hydra magnipapillata).
The target in assay [10] is HyNaC2/3/7 (Hydra magnipapillata).
Assay [11] addresses HyNaC2/11/5 (Hydra magnipapillata).
[12] abbreviates: Hydra-RFamide I concentration-response.
Setting [13] is: EGTA-injected oocytes, read-out: EC50 RFa I.

HyNaC2/3/6, sequence (A0A0A0MP54 entry or part of it): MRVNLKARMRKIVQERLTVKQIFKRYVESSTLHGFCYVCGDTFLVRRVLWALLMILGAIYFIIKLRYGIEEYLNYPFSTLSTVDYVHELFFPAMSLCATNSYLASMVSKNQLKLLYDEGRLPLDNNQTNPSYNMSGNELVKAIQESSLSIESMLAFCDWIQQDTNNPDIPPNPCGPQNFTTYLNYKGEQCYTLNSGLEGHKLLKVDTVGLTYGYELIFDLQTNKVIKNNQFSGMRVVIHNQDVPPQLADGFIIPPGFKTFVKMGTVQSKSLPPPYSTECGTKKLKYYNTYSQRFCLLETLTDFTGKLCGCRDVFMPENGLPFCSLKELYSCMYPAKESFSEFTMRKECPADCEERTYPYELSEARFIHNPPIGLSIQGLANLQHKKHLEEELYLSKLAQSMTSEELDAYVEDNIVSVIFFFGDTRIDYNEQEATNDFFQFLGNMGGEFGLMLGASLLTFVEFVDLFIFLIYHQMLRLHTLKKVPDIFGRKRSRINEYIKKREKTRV
HyNaC2/3/6, sequence (A8DZR7 entry or part of it): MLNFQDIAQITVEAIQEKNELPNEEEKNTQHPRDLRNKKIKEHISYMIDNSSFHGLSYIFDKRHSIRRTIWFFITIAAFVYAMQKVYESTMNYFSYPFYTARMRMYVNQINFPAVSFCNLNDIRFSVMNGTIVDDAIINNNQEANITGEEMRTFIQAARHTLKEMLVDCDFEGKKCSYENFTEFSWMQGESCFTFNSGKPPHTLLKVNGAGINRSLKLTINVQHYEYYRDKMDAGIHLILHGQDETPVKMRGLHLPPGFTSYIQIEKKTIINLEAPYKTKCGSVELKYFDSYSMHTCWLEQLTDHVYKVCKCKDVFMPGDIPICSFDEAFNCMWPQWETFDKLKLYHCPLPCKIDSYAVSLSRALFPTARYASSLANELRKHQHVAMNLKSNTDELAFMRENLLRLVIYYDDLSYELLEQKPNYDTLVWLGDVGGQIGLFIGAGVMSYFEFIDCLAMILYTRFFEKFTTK
HyNaC2/3/6, sequence (A8DZR6 entry or part of it): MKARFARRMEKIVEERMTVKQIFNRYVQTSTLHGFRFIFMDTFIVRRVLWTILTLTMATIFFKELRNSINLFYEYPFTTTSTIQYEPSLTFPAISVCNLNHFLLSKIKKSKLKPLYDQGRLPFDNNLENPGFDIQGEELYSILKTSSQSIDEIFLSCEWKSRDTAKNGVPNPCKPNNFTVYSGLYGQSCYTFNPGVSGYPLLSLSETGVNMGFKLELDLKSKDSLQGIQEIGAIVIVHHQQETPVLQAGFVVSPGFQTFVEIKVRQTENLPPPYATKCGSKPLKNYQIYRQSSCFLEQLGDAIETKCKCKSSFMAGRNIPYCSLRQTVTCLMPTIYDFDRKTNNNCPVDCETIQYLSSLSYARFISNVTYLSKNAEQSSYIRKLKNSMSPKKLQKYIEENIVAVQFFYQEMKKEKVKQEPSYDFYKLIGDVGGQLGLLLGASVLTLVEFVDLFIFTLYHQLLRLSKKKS
T1 sequence (A8DZR6 entry or part of it): as above
T1 sequence (D3UD58 entry or part of it): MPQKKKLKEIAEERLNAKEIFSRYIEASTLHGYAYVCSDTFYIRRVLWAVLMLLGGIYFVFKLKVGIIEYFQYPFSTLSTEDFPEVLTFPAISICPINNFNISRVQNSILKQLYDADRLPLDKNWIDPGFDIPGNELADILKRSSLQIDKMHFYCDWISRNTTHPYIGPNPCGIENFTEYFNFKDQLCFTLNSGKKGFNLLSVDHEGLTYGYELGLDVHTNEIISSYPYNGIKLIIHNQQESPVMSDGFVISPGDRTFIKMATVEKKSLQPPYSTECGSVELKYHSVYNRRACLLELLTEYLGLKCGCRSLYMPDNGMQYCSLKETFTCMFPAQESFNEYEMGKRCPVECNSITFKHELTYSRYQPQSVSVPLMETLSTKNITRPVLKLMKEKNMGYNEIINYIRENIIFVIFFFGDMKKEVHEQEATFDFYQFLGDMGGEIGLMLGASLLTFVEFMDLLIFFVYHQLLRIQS
T1 sequence (A8DZR7 entry or part of it): as the sequence (A8DZR7 entry or part of it) above
HyNaC2/3/7, sequence (A8DZR7 entry or part of it): as above
HyNaC2/3/7, sequence (A0A0A0MP73 entry or part of it): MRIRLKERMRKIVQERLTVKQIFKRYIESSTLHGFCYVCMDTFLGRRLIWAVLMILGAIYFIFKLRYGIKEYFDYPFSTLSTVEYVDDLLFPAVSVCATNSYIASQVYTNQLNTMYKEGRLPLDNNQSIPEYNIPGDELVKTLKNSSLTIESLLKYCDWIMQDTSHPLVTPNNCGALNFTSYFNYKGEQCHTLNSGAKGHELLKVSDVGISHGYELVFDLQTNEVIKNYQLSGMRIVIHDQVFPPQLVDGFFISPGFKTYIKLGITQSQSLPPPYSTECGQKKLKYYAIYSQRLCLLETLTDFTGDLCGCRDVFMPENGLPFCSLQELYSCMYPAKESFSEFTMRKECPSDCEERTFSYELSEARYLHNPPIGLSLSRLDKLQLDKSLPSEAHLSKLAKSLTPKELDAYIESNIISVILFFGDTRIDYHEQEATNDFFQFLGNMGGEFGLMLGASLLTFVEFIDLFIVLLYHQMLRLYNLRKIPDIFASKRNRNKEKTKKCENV
HyNaC2/3/7, sequence (A8DZR6 entry or part of it): as the sequence (A8DZR6 entry or part of it) above

For the substance Hydra-RFamide I, the EC50 at HyNaC2/4/6 (EGTA-injected oocytes) is 700 ± 80 nM; at HyNaC2/3/5 [1] (setting [13]), 3480 ± 550 nM; on HyNaC2/3/5 [3], approximately 5000 nM; on HyNaC2/9/7 (setting [13]), 40 ± 10 nM; on HyNaC2/11/5 (setting [13]), 13800 ± 1900 nM; at HyNaC2/3/7 (EGTA-injected oocytes) it was 190 ± 40 nM. Also, the EC50 on HyNaC2/10/7 is more than 30000 nM; on HyNaC2/3/6 (EGTA-injected oocytes), 290 ± 60 nM. In addition, the “Hill Coeff.” value on HyNaC2/4/6 (setting [12]) is recorded as 1.3 ± 0.1; at HyNaC2/3/5 [1] (setting [12]), 1.2 ± 0.1; at HyNaC2/9/7 (setting [12]) it was 1.5 ± 0.3; at HyNaC2/11/5 (setting [12]), 0.9 ± 0.1; on HyNaC2/3/7 (setting [12]), 1.6 ± 0.4; on HyNaC2/3/6 (setting [12]) it was 1.2 ± 0.2. Besides, the “Imax RFa I, current amplitude at maximal concentration of Hydra-RFamide I” value at HyNaC2/3/5 [1] (EGTA-injected oocytes) is 9.2 ± 1.9 μA and 9.2 ± 1.9 (9) μA; at HyNaC2/3/7 (EGTA-injected oocytes) it was 19.6 ± 1.8 μA and 19.6 ± 1.8 (14) μA; on HyNaC2/3/6 (EGTA-injected oocytes) it was 15.7 ± 3.2 μA and 15.7 ± 3.2 (10) μA. In assay [2], the “activation of functional HyNaC heterotrimers (current elicited)” value was “activation of HyNaCs”. The “activation of channels containing HyNaC12” value in assay [4] is “In no case did this result in channels that could be activated”. The “activation of HyNaC2/9/5” value with HyNaC2/9/5 is on record as “insensitive; also recorded: not activated”. Moreover, the “EC50 RFa I” value on HyNaC2/10/7 was “too low to calculate the EC50 precisely”.
Regarding Hydra-RFamide I (peptide), the EC50 of current activation by Hydra-RFamide I (two-electrode voltage clamp, Xenopus oocytes injected with EGTA) in [5] is 40 nM; in assay [6], 3480 nM; in [7], 290 nM; in assay [9] it was 700 nM; in [10], 190 nM; in assay [11], 13800 nM. In assay [8], this substance came in with an EC50 of current activation by Hydra-RFamide I (two-electrode voltage clamp, Xenopus oocytes injected with EGTA); saturation not reached of more than 30000 nM.

A word on the EC50: it is the concentration giving half of the maximal effect.
